According to PubChem BioAssay (NCI):
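A five-concentration, 48-hour dose response in 96-well plates underlies each endpoint, interpolated linearly between surrounding concentrations. GI50 marks 50% less growth. TGI: concentration producing complete growth inhibition.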

Key:
Experiment in all cases: NCI anticancer screen, dose series, 48 h
SK-MEL-5 melanoma = tested on: SK-MEL-5 melanoma
A498 renal = tested on: A498 renal
RXF 393 renal = tested on: RXF 393 renal
UACC-62 melanoma = tested on: UACC-62 melanoma
NCI-H460 lung = tested on: NCI-H460 lung
A549 NSCLC = tested on: A549 NSCLC
NCI/ADR-RES ovarian = tested on: NCI/ADR-RES ovarian
OVCAR-4 ovarian = tested on: OVCAR-4 ovarian
MOLT-4 leukemia = tested on: MOLT-4 leukemia
UACC-257 melanoma = tested on: UACC-257 melanoma
MDA-MB-231 breast = tested on: MDA-MB-231 breast
T-47D breast = tested on: T-47D breast
SK-MEL-28 melanoma = tested on: SK-MEL-28 melanoma
SK-OV-3 ovarian = tested on: SK-OV-3 ovarian
SW-620 colon = tested on: SW-620 colon
COLO 205 colon = tested on: COLO 205 colon
NCI-H522 lung = tested on: NCI-H522 lung
OVCAR-5 ovarian = tested on: OVCAR-5 ovarian
EKVX NSCLC = tested on: EKVX NSCLC
K-562 leukemia = tested on: K-562 leukemia
MDA-MB-435 = tested on: MDA-MB-435
RPMI-8226 leukemia = tested on: RPMI-8226 leukemia
HCC-2998 colon = tested on: HCC-2998 colon
SN12C renal = tested on: SN12C renal
SF-539 CNS = tested on: SF-539 CNS
OVCAR-8 ovarian = tested on: OVCAR-8 ovarian
HT29 colon = tested on: HT29 colon
SF-268 CNS = tested on: SF-268 CNS
786-0 renal = tested on: 786-0 renal
OVCAR-3 ovarian = tested on: OVCAR-3 ovarian
SNB-19 CNS = tested on: SNB-19 CNS
MALME-3M melanoma = tested on: MALME-3M melanoma
PC-3 prostate = tested on: PC-3 prostate
KM12 colon = tested on: KM12 colon
HOP-62 NSCLC = tested on: HOP-62 NSCLC
HCT-116 colon = tested on: HCT-116 colon
SK-MEL-2 melanoma = tested on: SK-MEL-2 melanoma
MCF7 breast = tested on: MCF7 breast
CAKI-1 renal = tested on: CAKI-1 renal
NCI-H23 lung = tested on: NCI-H23 lung
SR leukemia = tested on: SR leukemia
HCT-15 colon = tested on: HCT-15 colon
HS 578T breast = tested on: HS 578T breast
NCI-H226 lung = tested on: NCI-H226 lung
U251 CNS = tested on: U251 CNS
UO-31 renal = tested on: UO-31 renal
IGROV1 ovarian = tested on: IGROV1 ovarian
TK-10 renal = tested on: TK-10 renal
ACHN renal = tested on: ACHN renal
HL-60(TB) leukemia = tested on: HL-60(TB) leukemia
HOP-92 NSCLC = tested on: HOP-92 NSCLC
BT-549 breast = tested on: BT-549 breast
CCRF-CEM leukemia = tested on: CCRF-CEM leukemia
DU-145 prostate = tested on: DU-145 prostate
SNB-75 CNS = tested on: SNB-75 CNS
SF-295 CNS = tested on: SF-295 CNS
LOX IMVI melanoma = tested on: LOX IMVI melanoma
M14 melanoma = tested on: M14 melanoma

## CC(C)CCC[C@@H](C)[C@H]1CCC2C3=CCn4c(=O)ccc(=O)n4C3CC[C@@]21C (some centres not stated)
SK-MEL-5 melanoma
  GI50: 844 nM
  TGI: 2150 nM
A498 renal
  GI50: 1260 nM
  TGI: 2540 nM
RXF 393 renal
  GI50: 717 nM
  TGI: 2310 nM
UACC-62 melanoma
  GI50: 483 nM
  TGI: 1930 nM
NCI-H460 lung
  GI50: 886 nM
  TGI: 2350 nM
A549 NSCLC
  GI50: 325 nM
  TGI: 1240 nM
NCI/ADR-RES ovarian
  GI50: 602 nM
  TGI: 2350 nM
OVCAR-4 ovarian
  GI50: 910 nM
  TGI: 2300 nM
MOLT-4 leukemia
  GI50: 545 nM
  TGI: 4130 nM
UACC-257 melanoma
  GI50: 433 nM
  TGI: 1550 nM
MDA-MB-231 breast
  GI50: 1180 nM
  TGI: 2720 nM
T-47D breast
  GI50: 266 nM
  TGI: 1600 nM
SK-MEL-28 melanoma
  GI50: 837 nM
  TGI: 2100 nM
SK-OV-3 ovarian
  GI50: 1780 nM
  TGI: 3170 nM
SW-620 colon
  GI50: 689 nM
  TGI: 1940 nM
COLO 205 colon
  GI50: 449 nM
  TGI: 1140 nM
NCI-H522 lung
  GI50: 451 nM
  TGI: 1170 nM
OVCAR-5 ovarian
  GI50: 1160 nM
  TGI: 2710 nM
EKVX NSCLC
  GI50: 1240 nM
  TGI: 2940 nM
K-562 leukemia
  GI50: 309 nM
  TGI: 2020 nM
MDA-MB-435
  GI50: 599 nM
  TGI: 2030 nM
RPMI-8226 leukemia
  GI50: 243 nM
  TGI: 1010 nM
HCC-2998 colon
  GI50: 708 nM
  TGI: 2030 nM
SN12C renal
  GI50: 624 nM
  TGI: 2030 nM
SF-539 CNS
  GI50: 1430 nM
  TGI: 2790 nM
OVCAR-8 ovarian
  GI50: 485 nM
  TGI: 7550 nM
HT29 colon
  GI50: 575 nM
  TGI: 2060 nM
SF-268 CNS
  GI50: 1460 nM
  TGI: 2870 nM
786-0 renal
  GI50: 921 nM
  TGI: 2180 nM
OVCAR-3 ovarian
  GI50: 740 nM
  TGI: 2000 nM
SNB-19 CNS
  GI50: 1590 nM
  TGI: 3020 nM
MALME-3M melanoma
  GI50: 1400 nM
  TGI: 2920 nM
PC-3 prostate
  GI50: 367 nM
  TGI: 1590 nM
KM12 colon
  GI50: 639 nM
  TGI: 1800 nM
HOP-62 NSCLC
  GI50: 1340 nM
  TGI: 2760 nM
HCT-116 colon
  GI50: 220 nM
  TGI: 645 nM
SK-MEL-2 melanoma
  GI50: 557 nM
  TGI: 1460 nM
MCF7 breast
  GI50: 341 nM
  TGI: 1400 nM
CAKI-1 renal
  GI50: 460 nM
  TGI: 1210 nM
NCI-H23 lung
  GI50: 1630 nM
  TGI: 4180 nM
SR leukemia
  GI50: 137 nM
  TGI: 758 nM
HCT-15 colon
  GI50: 432 nM
  TGI: 2050 nM
HS 578T breast
  GI50: 1840 nM
  TGI: 5030 nM
NCI-H226 lung
  GI50: 1430 nM
  TGI: 3320 nM
U251 CNS
  GI50: 645 nM
  TGI: 1840 nM
UO-31 renal
  GI50: 354 nM
  TGI: 1480 nM
IGROV1 ovarian
  GI50: 698 nM
  TGI: 2500 nM
TK-10 renal
  GI50: 421 nM
  TGI: 1430 nM
ACHN renal
  GI50: 1160 nM
  TGI: 2450 nM
HL-60(TB) leukemia
  GI50: 113 nM
  TGI: 490 nM
HOP-92 NSCLC
  GI50: 240 nM
  TGI: 1390 nM
BT-549 breast
  GI50: 241 nM
  TGI: 1140 nM
CCRF-CEM leukemia
  GI50: 453 nM
  TGI: > 100000 nM
DU-145 prostate
  GI50: 1240 nM
  TGI: 2520 nM
SNB-75 CNS
  GI50: 1010 nM
  TGI: 2180 nM
SF-295 CNS
  GI50: 352 nM
  TGI: 1280 nM
LOX IMVI melanoma
  GI50: 482 nM
  TGI: 1490 nM
M14 melanoma
  GI50: 436 nM
  TGI: 1440 nM

## Brc1ccc2[nH]cc([C@H]3CN[C@@H](c4c[nH]c5ccc(Br)cc45)CN3)c2c1
SK-MEL-5 melanoma
  TGI: 6770 nM
A498 renal
  TGI: 4530 nM
RXF 393 renal
  TGI: > 25400 nM
UACC-62 melanoma
  TGI: > 45900 nM
NCI-H460 lung
  GI50: 3040 nM
  TGI: 16300 nM
A549 NSCLC
  TGI: 7170 nM
NCI/ADR-RES ovarian
  TGI: 4520 nM
OVCAR-4 ovarian
  TGI: 4440 nM
MOLT-4 leukemia
  TGI: 4950 nM
UACC-257 melanoma
  GI50: 7390 nM
  TGI: 21400 nM
MDA-MB-231 breast
  GI50: 1850 nM
  TGI: 3810 nM
T-47D breast
  GI50: 3620 nM
  TGI: 18000 nM
SK-MEL-28 melanoma
  TGI: > 52600 nM
SK-OV-3 ovarian
  TGI: > 23500 nM
SW-620 colon
  TGI: > 22100 nM
COLO 205 colon
  TGI: 3240 nM
NCI-H522 lung
  TGI: 3270 nM
OVCAR-5 ovarian
  GI50: 3250 nM
  TGI: 12000 nM
EKVX NSCLC
  TGI: 6460 nM
K-562 leukemia
  TGI: 4540 nM
MDA-MB-435
  TGI: 3180 nM
RPMI-8226 leukemia
  TGI: 6040 nM
HCC-2998 colon
  TGI: 3170 nM
SN12C renal
  TGI: 9890 nM
SF-539 CNS
  TGI: 4060 nM
OVCAR-8 ovarian
  TGI: 3700 nM
HT29 colon
  TGI: 4680 nM
SF-268 CNS
  TGI: 9050 nM
786-0 renal
  TGI: 5680 nM
OVCAR-3 ovarian
  TGI: 3800 nM
SNB-19 CNS
  TGI: > 23900 nM
MALME-3M melanoma
  GI50: 2790 nM
  TGI: 15000 nM
PC-3 prostate
  TGI: 5270 nM
KM12 colon
  TGI: 3250 nM
HOP-62 NSCLC
  TGI: > 41200 nM
HCT-116 colon
  TGI: 4680 nM
SK-MEL-2 melanoma
  TGI: 5540 nM
MCF7 breast
  TGI: 3300 nM
CAKI-1 renal
  TGI: 4880 nM
NCI-H23 lung
  TGI: 3620 nM
SR leukemia
  TGI: 5200 nM
HCT-15 colon
  TGI: 3810 nM
HS 578T breast
  TGI: 28200 nM
NCI-H226 lung
  TGI: 7760 nM
U251 CNS
  TGI: 5020 nM
UO-31 renal
  TGI: 5290 nM
IGROV1 ovarian
  TGI: 3780 nM
TK-10 renal
  TGI: 4780 nM
ACHN renal
  TGI: 5010 nM
HL-60(TB) leukemia
  TGI: 4080 nM
HOP-92 NSCLC
  TGI: 6050 nM
BT-549 breast
  TGI: > 62000 nM
CCRF-CEM leukemia
  TGI: 6110 nM
DU-145 prostate
  TGI: 5250 nM
SNB-75 CNS
  GI50: 1500 nM
  TGI: 8460 nM
SF-295 CNS
  GI50: 12200 nM
  TGI: 27600 nM
LOX IMVI melanoma
  TGI: 2820 nM
M14 melanoma
  TGI: 3380 nM
